Entries after “also recorded” stand apart in the source; their conditions may differ.
Experiments:
[1] = test system: B16F10 cells (mouse melanoma model); test: Mouse melanoma model: B16F10 cells subcutaneously in C57BL/6J female mice; type: in vivo; conditions: FIG. 11, treatments administered for 7-9 days, 30 mg/kg per Table 2
Description: For in vivo studies, the drugs fosaprepitant dimeglumine salt (CAS No 265121-04-8, Selleck Chemicals), Cerenia® (Maropitant citrate injectable solution; Zoetis US), InVivoMAb Anti-mouse CTLA-4 (CD152) (BE0032, Bio cell), InVivoMAb Anti-mouse PD-1 (CD279) (BE0146, Bio cell) and Rat IgG2a k isotype (ref BE0089) were used.
B16F10 cells (1×10^6 per mouse) were subcutaneously injected into the right flank of C57BL/6J female mice (Charles River) with matrigel (Matrigel Membrane Matrix, Corning) at 50% v/v. Tumour growth was evaluated every 2/3 days. Animal vital parameters were monitored daily. When the tumours reached an average volume of 100-150 mm^3, mice were randomised into cohorts of 6 animals and treatments were administered for 7-9 days. Groups and regimens for each experiment are described in Table 2. Animals of the control group were dosed with equal volume of vehicle. Animals were euthanized according to institutional guidelines and tumour samples were excised. Tumours were snap-frozen in OCT medium (Sakura Tissue Tek) or fixed in PFA and embedded in paraffin. Several internal organs were also excised and fixed in PFA for future studies.

[2] = test system: cell lines of Table 1 (3LL, 4T1, B16F10, CT26WT, PTEN, RT112, MCF7 cells); test: MTT cell viability (cytotoxicity) assay in tumour cell lines, FIGS. 1-9; type: cell-based, mouse, rat and human; conditions: cell viability after 24 hours or 48 hours
Protocol: 21 Cell lines of three different species (mouse, rat and human) were used in this study (Table 1). All of them were maintained in culture in their respective culture media (Gibco, Thermo Fisher Scientific) supplemented with 10% fetal bovine serum (FBS) (Gibco, Thermo Fisher Scientific), 2 mM L-Glutamine (Sigma-Aldrich, Merk), and Peni-Strep (50 U/ml and […]; Gibco, Thermo Fisher Scientific) in a humidified incubator at 37° C. and 5% CO2.
The cytotoxicity of the drugs in culture was evaluated using the 3-(4,5-Dimethyl-2-thiazolyl)-2,5-diphenyl-2H-tetrazolium bromide (MTT) reduction assay. The assay assesses cell viability through the indirect measurement of the activity of reductases that convert yellow soluble MTT into purple insoluble formazan salts. As MTT can only be reduced when these enzymes are active, the reaction is used as an indicator of the cell metabolic competence and, therefore, of viability.
A variable number of cells (depending on the cell line) were seeded in 96 multi-well plates and grown during 24 Hours Cell Viability. The following day the culture medium was aspirated and fresh culture medium with the drug dissolved was added to the wells. After 24 Hours Cell Viability or 48 Hours Cell Viability cell viability was measurement by adding 10 μl of a 5 mg/ml MTT solution (M5655; Sigma-Aldrich) and 100 μl of a Hcl 0.01M-SDS 10% solution 4 hours later. After 24 Hours Cell Viability, the absorbance was measured at 595 nm, using a multi-well plate reader (iMark, Bio-rad).

[3] = test system: osteoclastic osteosarcoma clinical stage IV; test: Compassionate use of aprepitant in a patient with osteosarcoma; type: in vivo, human
Protocol: On Dec. 9, 2022 the patient was approved for compassionate use of aprepitant at a dose of 4200 mg orally divided into 3 doses (the total daily dose being 4200 mg) along with ifosfamide and etoposide as a fourth line of treatment. Close clinical surveillance of the patient was initiated to monitor quality of life, functional status and manifestation of adverse reactions to treatment, as well as periodic serological surveillance and measurement of response to treatment by imaging studies using the RECIST 1.1 criteria.

[4] = test system: a range of provoked cancers and tumours; conditions: immunocompromised nude mice; 10-80 mg/kg per day, up to 28 days; cited from earlier work
[5] = test system: osteosarcoma cell line, MG-63; conditions: immunocompromised nude mice; injected weekly at 80 mg/kg; cited from earlier work
[6] = Feb. 6, 2023, aprepitant 4200 mg per day with ifosfamide and etoposide
[7] = PET/CT Jan. 9, 2023, aprepitant 4200 mg per day with ifosfamide and etoposide
[8] = aprepitant 4200 mg per day with ifosfamide and etoposide

COc1ccc(C(C)(C)C)cc1CN[C@H]1C2CCN(CC2)[C@H]1C(c1ccccc1)c1ccccc1 [Maropitant]
tumoral growth [1]: reduces tumoral growth

C[C@@H](O[C@H]1OCCN(Cc2nc(=O)[nH][nH]2)[C@H]1c1ccc(F)cc1)c1cc(C(F)(F)F)cc(C(F)(F)F)c1 [aprepitant, 5-[[(2R, 3S)-2-[(1R)-1-[3,5-bis(trifluoromethyl)phenyl]ethoxy]-3-(4-fluorophenyl)-4-morpholinyl]methyl]-1,2-dihydro3H-1,2,4-triazol-3-one]
anti-cancer effects in vitro (cell viability, MTT) [2]: exhibited anti-cancer effects
left upper nodule [3, 6]: 21 mm
pulmonary nodule in left lower lobe [3, 6]: 16.5 mm
pulmonary nodule in left lower nodule [3, 6]: 10 mm
size of bilateral pulmonary nodules and masses of right predominance [3, 6]: slight increase in the size
largest of two basal nodules, left lung [3, 7]: 20 mm
nodule in the left upper lower lobe [3, 7]: 16 mm
nodules in the posterior apical segment, left lung [3, 7]: 21 mm
diameter of solid nodule, right pleura, hilar in the middle lobe ([3]; PET/CT Jan. 9, 2023, aprepitant 4200 mg per day with ifosfamide and etoposide since Dec. 9, 2022): 42 mm
response according to RECIST 1.1 criteria, clinical and serological surveillance ([3]; aprepitant 4200 mg per day orally in 3 doses with ifosfamide and etoposide, from Dec. 9, 2022 to Feb. 15, 2023): stable disease-like response
Karnofsky [3, 8]: 70%
impact on the patient compared with the expected course of the disease [3, 8]: positive impact
symptomatology by the Edmonton scale [3, 8]: no increase in symptoms
ECOG functional status ([3]; aprepitant 4200 mg per day with ifosfamide and etoposide, since the start of follow-up): 1
EORTC QLQ-C30 overall score (quality of life) ([3]; aprepitant 4200 mg per day with ifosfamide and etoposide, since the start of therapy): 50%
tolerance ([3]; aprepitant 4200 mg per day with ifosfamide and etoposide, with supportive treatment): adequate tolerance
effect on tumour size / growth [4]: somewhat effective; also recorded: slows the growth of the tumours without any net reduction in the tumour sizes

CNC[C@H](O)[C@@H](O)[C@H](O)[C@H](O)CO.CNC[C@H](O)[C@@H](O)[C@H](O)[C@H](O)CO.C[C@@H](O[C@H]1OCCN(Cc2nc(=O)n(P(=O)(O)O)[nH]2)[C@H]1c1ccc(F)cc1)c1cc(C(F)(F)F)cc(C(F)(F)F)c1 [fosaprepitant-dimeglumine, 1-Deoxy-1-(methylamino)-D-glucitol[3-[[(2R,3S)-2-[(1R)-1-[3,5-bis(trifluoromethyl)phenyl]ethoxy]-3-(4-fluorophenyl)-4-morpholinyl]methyl]-2,5-dihydro-5-oxo-1H-1,2,4 triazol-1-yl]phosphonate (2:1) (salt)]
tumoral growth [1]: reduces tumoral growth

C[C@@H](O[C@H]1OCCN(Cc2nc(O)n(P(=O)(O)O)n2)[C@H]1c1ccc(F)cc1)c1cc(C(F)(F)F)cc(C(F)(F)F)c1 [fosaprepitant]
anti-cancer effects in vitro (cell viability, MTT) [2]: exhibited anti-cancer effects
therapeutic efficacy against MG-63 xenograft [5]: some therapeutic efficacy

Cc1ccccc1-c1cc(N2CCN(C)CC2)ncc1N(C)C(=O)C(C)(C)c1cc(C(F)(F)F)cc(C(F)(F)F)c1 [netupitant]
anti-cancer effects in vitro (cell viability, MTT) [2]: exhibited anti-cancer effects
